From article PMC7398594 (Neurotoxicology, 2020)

Tests used:
Format in all cases: cell-based, mouse
[1] = tested on: HEI-OC1 cells; experiment: MTT cellular viability assay; details: HEI-OC1 cell culture, ± standard deviation
[2] = tested on: HEI-OC1 cells; experiment: Reactive oxygen species assay; details: 24 hours, treated at compound IC50 value
[3] = tested on: caspase-3/7 activity in HEI-OC1 cells; experiment: Caspase-3/7 luminescence assay; details: treated at compound IC50 value
[4] = tested on: HEI-OC1 cells; experiment: Mitochondrial membrane potential assay; details: treated at compound IC50 value

| SMILES | IC50 ([1]; 24 Hr treatment) [nM] | IC50 ([1]; 48 Hr treatment) [nM] | ROS yield, % of negative control [2] [%] | caspase-3/7 activity, % of negative control ([3]; 24 hours) [%] | caspase-3/7 activity, % of negative control ([3]; 48 hours) [%] | mitochondrial membrane polarization (FL1 to FL3 ratio), % of negative control ([4]; 24 hours) [%] | mitochondrial membrane polarization (FL1 to FL3 ratio), % of negative control ([4]; 48 hours) [%] |
| --- | --- | --- | --- | --- | --- | --- | --- |
| N.N.[Cl][Pt][Cl] [cisplatin] | 1660 ± 330 | 4520 ± 170 | 751 | 86 | 352 | 109 | 110 |
| [NH3+][Pt-2]([NH3+])([Cl])[n+]1cc2ccccc2c2ccccc21 (stereo not drawn) [phenanthriplatin, cis-diammine (phenanthridine) chloroplatinum(II)] | 1640 ± 190 | 2310 ± 290 | 741 | 83 | 89 | 98 | 88 |
| [NH3+][Pt-2]([NH3+])([Cl])[n+]1ccccc1 (stereo not drawn) [pyriplatin, cis-diammine (pyridine) chloroplatinum(II)] | 11100 ± 280 | 2520 ± 110 | 618 | 82 | 101 | 101 | 90 |
